Test results from patent US20220226299A1 (NIPPON CHEMIPHAR CO., LTD., priority 2019, published 2022).
Where a name gives a salt, the structure may show the parent alone.

The compounds below were run against T1, human Cav3.2 channels (Homo sapiens, UniProt O95180) (assay: T-type calcium blocking action: intracellular calcium (Fluo-4 AM fluorescence) in HEK293 cells steadily expressing human Cav3.2 channels). Settings: HEK293 cells expressing human Cav3.2; KCl-stimulated calcium influx, Fluo-4 fluorescence; Tables 1 to 3.
T1 construct: human Cav3.2 channel ORF (Open Reading Frame) gene; expressed in transfected cells; host or cells: HEK293 cells (ATCC No. CRL-1573), pcDNA3.1(+) plasmid
Assay type: cell-based
In short: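 Fluo-4 AM-loaded stable HEK293 cells were preincubated 15 min at RT with compound (0.1% DMSO final) in choline-based buffer (pH 7.3). Gramicidin was added, then KCl-induced calcium influx was read at 485/510 nm for 10 s. Percent block came from peak rise over baseline, and IC50 from log-concentration plots.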

T1 sequence (O95180 whole entry): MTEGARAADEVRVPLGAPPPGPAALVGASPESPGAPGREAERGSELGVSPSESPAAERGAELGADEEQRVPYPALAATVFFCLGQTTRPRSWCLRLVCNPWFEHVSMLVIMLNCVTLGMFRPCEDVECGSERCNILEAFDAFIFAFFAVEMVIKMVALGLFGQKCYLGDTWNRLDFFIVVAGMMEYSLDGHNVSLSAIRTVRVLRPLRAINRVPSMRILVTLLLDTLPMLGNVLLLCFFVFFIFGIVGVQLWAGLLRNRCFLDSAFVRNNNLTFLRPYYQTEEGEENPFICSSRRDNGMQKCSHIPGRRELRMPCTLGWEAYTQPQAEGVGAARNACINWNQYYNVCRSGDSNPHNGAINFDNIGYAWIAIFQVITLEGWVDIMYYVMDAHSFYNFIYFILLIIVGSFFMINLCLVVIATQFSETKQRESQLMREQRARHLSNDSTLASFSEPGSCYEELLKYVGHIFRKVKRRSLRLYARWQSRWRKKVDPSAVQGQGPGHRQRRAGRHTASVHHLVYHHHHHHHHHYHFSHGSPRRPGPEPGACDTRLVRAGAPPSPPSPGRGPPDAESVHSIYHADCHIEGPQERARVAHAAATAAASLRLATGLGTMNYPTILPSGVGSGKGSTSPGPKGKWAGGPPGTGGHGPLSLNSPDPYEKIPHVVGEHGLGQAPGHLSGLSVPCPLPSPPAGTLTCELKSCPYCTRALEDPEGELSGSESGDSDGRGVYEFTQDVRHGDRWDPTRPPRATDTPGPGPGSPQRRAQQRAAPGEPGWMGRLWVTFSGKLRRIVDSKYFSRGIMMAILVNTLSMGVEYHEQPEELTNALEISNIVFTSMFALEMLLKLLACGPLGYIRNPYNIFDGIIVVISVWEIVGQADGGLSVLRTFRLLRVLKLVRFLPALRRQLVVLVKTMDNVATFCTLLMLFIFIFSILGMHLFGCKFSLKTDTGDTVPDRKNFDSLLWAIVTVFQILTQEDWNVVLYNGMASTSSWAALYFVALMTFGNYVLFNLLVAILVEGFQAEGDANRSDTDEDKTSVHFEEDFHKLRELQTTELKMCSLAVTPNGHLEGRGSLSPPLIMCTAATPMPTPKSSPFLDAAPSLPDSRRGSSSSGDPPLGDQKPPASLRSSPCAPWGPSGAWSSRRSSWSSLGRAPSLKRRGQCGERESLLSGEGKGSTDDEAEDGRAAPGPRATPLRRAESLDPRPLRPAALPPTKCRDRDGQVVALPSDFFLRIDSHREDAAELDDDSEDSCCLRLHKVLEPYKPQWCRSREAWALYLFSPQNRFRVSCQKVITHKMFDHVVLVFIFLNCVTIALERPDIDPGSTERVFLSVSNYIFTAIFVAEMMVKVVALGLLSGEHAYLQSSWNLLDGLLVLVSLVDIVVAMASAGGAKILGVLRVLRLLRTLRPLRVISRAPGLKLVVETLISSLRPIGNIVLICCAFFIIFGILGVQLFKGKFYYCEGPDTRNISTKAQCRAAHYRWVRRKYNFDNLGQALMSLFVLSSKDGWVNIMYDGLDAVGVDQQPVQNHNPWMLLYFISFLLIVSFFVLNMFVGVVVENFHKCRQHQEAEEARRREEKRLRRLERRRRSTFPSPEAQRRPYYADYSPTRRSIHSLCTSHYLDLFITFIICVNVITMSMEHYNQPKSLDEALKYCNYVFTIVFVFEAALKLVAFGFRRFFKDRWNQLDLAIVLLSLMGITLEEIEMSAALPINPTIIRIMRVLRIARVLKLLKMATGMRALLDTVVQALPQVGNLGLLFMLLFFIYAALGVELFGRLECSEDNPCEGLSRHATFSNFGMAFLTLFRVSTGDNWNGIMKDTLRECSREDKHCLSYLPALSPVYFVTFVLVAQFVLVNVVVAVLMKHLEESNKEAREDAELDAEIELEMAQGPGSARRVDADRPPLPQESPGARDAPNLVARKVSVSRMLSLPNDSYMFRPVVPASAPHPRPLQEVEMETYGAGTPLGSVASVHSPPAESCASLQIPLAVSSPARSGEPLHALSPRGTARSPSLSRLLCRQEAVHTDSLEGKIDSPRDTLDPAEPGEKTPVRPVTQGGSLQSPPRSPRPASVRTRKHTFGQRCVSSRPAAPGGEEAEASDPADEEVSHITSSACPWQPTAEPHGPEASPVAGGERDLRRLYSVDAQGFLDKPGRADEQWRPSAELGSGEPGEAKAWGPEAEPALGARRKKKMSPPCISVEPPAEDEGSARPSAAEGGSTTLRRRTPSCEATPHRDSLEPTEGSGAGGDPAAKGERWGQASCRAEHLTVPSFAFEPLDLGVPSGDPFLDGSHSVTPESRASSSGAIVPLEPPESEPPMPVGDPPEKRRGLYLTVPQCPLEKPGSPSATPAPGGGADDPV

| SMILES | IC50 [nM] |
| --- | --- |
| O=C(Cc1ccc(C2CC2)cc1)N[C@@H]1CCN(c2cncc(OCC(F)(F)F)c2)C1 [Example 126, (R)-2-(4-cyclopropylphenyl)-N-(1-(5-(2,2,2-trifluoroethoxy)pyridin-3-yl)pyrrolidin-3-yl)acetamide] | 830 |
| O=C(Cc1ccc(C2CC2)cc1)N[C@@H]1CCN(c2cc(OCC(F)(F)F)ccn2)C1 [Example 127, (R)-2-(4-cyclopropylphenyl)-N-(1-(4-(2,2,2-trifluoroethoxy)pyridin-2-yl)pyrrolidin-3-yl)acetamide] | 1100 |
| O=C(Cc1ccc(C2CC2)cc1)N[C@@H]1CCCN(c2cncc(C(F)(F)F)c2)C1 [Example 129, (R)-2-(4-cyclopropylphenyl)-N-(1-(5-(trifluoromethyl)pyridin-3-yl)piperidin-3-yl)acetamide] | 550 |
| O=C(Cc1ccc(C2CC2)cc1)N[C@@H]1CCN(c2cc(C(F)(F)F)c[n+]([O-])c2)C1 [Example 134A, (R)-3-(3-(2-(4-cyclopropylphenyl)acetamido)pyrrolidin-1-yl)-5-(trifluoromethyl)pyridine 1-oxide] | 930 |
| O=C(Cc1ccc(C2CC2)cc1)N[C@@H]1CC[N+]([O-])(c2cncc(C(F)(F)F)c2)C1 (stereo partly drawn) [Example 134B, (3R)-3-(2-(4-cyclopropylphenyl)acetamido)-1-(5-(trifluoromethyl)pyridin-3-yl)pyrrolidine 1-oxide] | 1000 |
| CC(C)(C(=O)N[C@@H]1CCN(c2cncc(C(F)(F)F)c2)C1)c1ccc(C2CC2)cc1 [Example 135, (R)-2-(4-cyclopropylphenyl)-2-methyl-N-(1-(5-(trifluoromethyl)pyridin-3-yl)pyrrolidin-3-yl)propanamide] | 230 |
| O=C(Cc1ccc(C2CC2)cc1)N[C@@H]1CCN(c2cc(F)cc(C(F)(F)F)c2)C1 [Example 136, (R)-2-(4-cyclopropylphenyl)-N-(1-(3-fluoro-5-(trifluoromethyl)phenyl)pyrrolidin-3-yl)acetamide] | 1500 |
| CN(C)C(C(=O)N[C@@H]1CCN(c2cncc(C(F)(F)F)c2)C1)c1ccc(C2CC2)cc1 (stereo partly drawn) [Example 138, 2-(4-cyclopropylphenyl)-2-(dimethylamino)-N—((R)-1-(5-(trifluoromethyl)pyridin-3-yl)pyrrolidin-3-yl)acetamide hydrochloride] | 690 |
| O=C(Cc1ccc(C(F)(F)F)cc1C(F)(F)F)N[C@@H]1CCN(c2cncc(C(F)(F)F)c2)C1 [Example 140, (R)-2-(2,4-bis(trifluoromethyl)phenyl)-N-(1-(5-(trifluoromethyl)pyridin-3-yl)pyrrolidin-3-yl)acetamide] | 1100 |
| O=C(Cc1ccc(C(F)(F)F)cc1F)N[C@@H]1CCN(c2cncc(C(F)(F)F)c2)C1 [Example 141, (R)-2-(2-fluoro-4-(trifluoromethyl)phenyl)-N-(1-(5-(trifluoromethyl)pyridin-3-yl)pyrrolidin-3-yl)acetamide] | 180 |
| CC1(C)CN(c2ccc(CC(=O)N[C@@H]3CCN(c4cncc(C(F)(F)F)c4)C3)cc2)CCO1 [Example 145, (R)-2-(4-(2,2-dimethylmorpholino)phenyl)-N-(1-(5-(trifluoromethyl)pyridin-3-yl)pyrrolidin-3-yl)acetamide] | 130 |
| C[C@@]1(NC(=O)Cc2ccc(N3CCOCC3)cc2)CCN(c2cncc(C(F)(F)F)c2)C1 [Example 147, (R)—N-(3-methyl-1-(5-(trifluoromethyl)pyridin-3-yl)pyrrolidin-3-yl)-2-(4-morpholinophenyl)acetamide] | 170 |
| C[C@@]1(NC(=O)Cc2ccc(C3CC3)cc2)CCN(c2cncc(C(F)(F)F)c2)C1 [Example 148, (R)-2-(4-cyclopropylphenyl)-N-(3-methyl-1-(5-(trifluoromethyl)pyridin-3-yl)pyrrolidin-3-yl)acetamide] | 200 |
| O=C(Cc1ccc(N2C3CCC2COC3)cc1)N[C@@H]1CCN(c2cncc(C(F)(F)F)c2)C1 [Example 149, 2-(4-(3-Oxa-8-azabicyclo[3.2.1]octan-8-yl)phenyl)-N—((R)-1-(5-(trifluoromethyl)pyridin-3-yl)pyrrolidin-3-yl) acetamide] | 69 |
| O=C(Cc1ccc(N2C3CCC2COC3)cc1)N[C@@H]1CCN(c2ccc(C(F)(F)F)nc2)C1 [Example 150, 2-(4-(3-Oxa-8-azabicyclo[3.2.1]octan-8-yl)phenyl)-N—((R)-1-(6-(trifluoromethyl)pyridin-3-yl)pyrrolidin-3-yl)acetamide] | 400 |

Continued, values first:

| IC50 [nM] | SMILES |
| --- | --- |
| 62 | O=C(Cc1ccc2cc[nH]c2c1)N[C@@H]1CCN(c2cncc(C(F)(F)F)c2)C1 [Example 124, (R)-2-(1H-indol-6-yl)-N-(1-(5-(trifluoromethyl)pyridin-3-yl)pyrrolidin-3-yl)acetamide] |
| 200 | CC(C)(O)c1ccc(CC(=O)N[C@@H]2CCN(c3cncc(C(F)(F)F)c3)C2)cc1 [Example 131, (R)-2-(4-(2-hydroxypropan-2-yl)phenyl)-N-(1-(5-(trifluoromethyl)pyridin-3-yl)pyrrolidin-3-yl)acetamide] |
| 190 | Cc1nccnc1-c1ccc(CC(=O)N[C@@H]2CCN(c3cncc(C(F)(F)F)c3)C2)cc1 [Example 132, (R)-2-(4-(3-methylpyrazin-2-yl)phenyl)-N-(1-(5-(trifluoromethyl)pyridin-3-yl)pyrrolidin-3-yl)acetamide] |
| 55 | Cc1ncoc1-c1ccc(CC(=O)N[C@@H]2CCN(c3cncc(C(F)(F)F)c3)C2)cc1 [Example 133, (R)-2-(4-(4-methyloxazol-5-yl)phenyl)-N-(1-(5-(trifluoromethyl)pyridin-3-yl)pyrrolidin-3-yl)acetamide] |
| 5.4 | Cn1ccc2cc(CC(=O)N[C@@H]3CCN(c4cncc(C(F)(F)F)c4)C3)ccc21 [Example 139, (R)-2-(1-methyl-1H-indol-5-yl)-N-(1-(5-(trifluoromethyl)pyridin-3-yl)pyrrolidin-3-yl)acetamide] |
| 9.4 | Cn1ncc2cc(CC(=O)N[C@@H]3CCN(c4cncc(C(F)(F)F)c4)C3)ccc21 [Example 142, (R)-2-(1-methyl-1H-indazol-5-yl)-N-(1-(5-(trifluoromethyl)pyridin-3-yl)pyrrolidin-3-yl)acetamide] |
| 120 | Cn1ncc2cc(CC(=O)N[C@@H]3CCN(c4nc(C(F)(F)F)cs4)C3)ccc21 [Example 143, (R)-2-(1-methyl-1H-indazol-5-yl)-N-(1-(4-(trifluoromethyl)thiazol-2-yl)pyrrolidin-3-yl)acetamide] |
| 23 | O=C(Cc1ccc(-n2cccn2)cc1)N[C@@H]1CCN(c2cncc(C(F)(F)F)c2)C1 [Example 146, (R)-2-(4-(1H-pyrazol-1-yl)phenyl)-N-(1-(5-(trifluoromethyl)pyridin-3-yl)pyrrolidin-3-yl)acetamide] |
| 2700 | O=C(Cc1ccc2ocnc2c1)N[C@@H]1CCN(c2ccc(C(F)(F)F)nc2)C1 [Example 151, (R)-2-(benzo[d]oxazol-5-yl)-N-(1-(6-(trifluoromethyl)pyridin-3-yl)pyrrolidin-3-yl)acetamide] |
| 1300 | O=C(Cc1ccc2ocnc2c1)N[C@@H]1CCN(c2cncc(C(F)(F)F)c2)C1 [Example 152, (R)-2-(benzo[d]oxazol-5-yl)-N-(1-(5-(trifluoromethyl)pyridin-3-yl)pyrrolidin-3-yl)acetamide] |
| 570 | Cc1nc2cc(CC(=O)N[C@@H]3CCN(c4cncc(C(F)(F)F)c4)C3)ccc2o1 [Example 153, (R)-2-(2-methylbenzo[d]oxazol-5-yl)-N-(1-(5-(trifluoromethyl)pyridin-3-yl)pyrrolidin-3-yl)acetamide] |
